Data as given in PubChem BioAssay (NCI).
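Cultured in 96-well plates, cells were exposed to test compound for 48 hours across five concentrations. Abbreviation: GI50, concentration required for 50% inhibition of growth. TGI is the concentration that stops growth completely.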

Tests used:
Experiment in all cases: NCI anticancer screen, dose series, 48 h
SW-620 colon = tested on: SW-620 colon
SF-268 CNS = tested on: SF-268 CNS
UO-31 renal = tested on: UO-31 renal
U251 CNS = tested on: U251 CNS
EKVX NSCLC = tested on: EKVX NSCLC
COLO 205 colon = tested on: COLO 205 colon
SK-MEL-28 melanoma = tested on: SK-MEL-28 melanoma
OVCAR-4 ovarian = tested on: OVCAR-4 ovarian
NCI-H226 lung = tested on: NCI-H226 lung
T-47D breast = tested on: T-47D breast
TK-10 renal = tested on: TK-10 renal
HL-60(TB) leukemia = tested on: HL-60(TB) leukemia
SNB-19 CNS = tested on: SNB-19 CNS
HCC-2998 colon = tested on: HCC-2998 colon
SF-295 CNS = tested on: SF-295 CNS
HCT-116 colon = tested on: HCT-116 colon
A498 renal = tested on: A498 renal
MALME-3M melanoma = tested on: MALME-3M melanoma
NCI-H23 lung = tested on: NCI-H23 lung
NCI/ADR-RES ovarian = tested on: NCI/ADR-RES ovarian
IGROV1 ovarian = tested on: IGROV1 ovarian
HOP-92 NSCLC = tested on: HOP-92 NSCLC
SK-MEL-5 melanoma = tested on: SK-MEL-5 melanoma
PC-3 prostate = tested on: PC-3 prostate
NCI-H522 lung = tested on: NCI-H522 lung
UACC-62 melanoma = tested on: UACC-62 melanoma
RXF 393 renal = tested on: RXF 393 renal
KM12 colon = tested on: KM12 colon

**Q.** `CCCCCc1ccc(S(=O)(=O)Nc2cc(-c3csc(NC(=O)CN4CCN(C)CC4)n3)ccc2OC)cc1` was tested. Which GI50 (SW-620 colon) did it give?
**A.** Its GI50 is 867 nM.

**Q.** What about the TGI (SW-620 colon) of the same compound?
**A.** The TGI was 1690 nM.

**Q.** And the GI50 (SF-268 CNS)?
**A.** The GI50 was 898 nM.

**Q.** And the TGI (SF-268 CNS)?
**A.** The TGI was 1920 nM.

**Q.** And the GI50 (UO-31 renal)?
**A.** Its GI50 is 736 nM.

**Q.** What about the TGI (UO-31 renal) of the same compound?
**A.** The TGI was 1610 nM.

**Q.** And the GI50 (U251 CNS)?
**A.** Its GI50 is 901 nM.

**Q.** What about the TGI (U251 CNS) of the same compound?
**A.** Its TGI is 1910 nM.

**Q.** What about the GI50 (EKVX NSCLC) of the same compound?
**A.** Its GI50 is 1920 nM.

**Q.** What about the TGI (EKVX NSCLC) of the same compound?
**A.** The TGI was 9160 nM.

**Q.** And the GI50 (COLO 205 colon)?
**A.** Its GI50 is 821 nM.

**Q.** And the TGI (COLO 205 colon)?
**A.** The TGI was 1680 nM.

**Q.** And the GI50 (SK-MEL-28 melanoma)?
**A.** Its GI50 is 873 nM.

**Q.** And the TGI (SK-MEL-28 melanoma)?
**A.** Its TGI is 1620 nM.

**Q.** What about the GI50 (OVCAR-4 ovarian) of the same compound?
**A.** The GI50 was 1310 nM.

**Q.** What about the TGI (OVCAR-4 ovarian) of the same compound?
**A.** Its TGI is 4100 nM.

**Q.** And the GI50 (NCI-H226 lung)?
**A.** The GI50 was 6890 nM.

**Q.** What about the TGI (NCI-H226 lung) of the same compound?
**A.** Its TGI is 17600 nM.

**Q.** And the GI50 (T-47D breast)?
**A.** The GI50 was 921 nM.

**Q.** What about the TGI (T-47D breast) of the same compound?
**A.** Its TGI is 2060 nM.

**Q.** What about the GI50 (TK-10 renal) of the same compound?
**A.** The GI50 was 1410 nM.

**Q.** And the TGI (TK-10 renal)?
**A.** The TGI was 5100 nM.

**Q.** And the GI50 (HL-60(TB) leukemia)?
**A.** Its GI50 is 1070 nM.

**Q.** What about the TGI (HL-60(TB) leukemia) of the same compound?
**A.** Its TGI is 2340 nM.

**Q.** And the GI50 (SNB-19 CNS)?
**A.** Its GI50 is 1260 nM.

**Q.** And the TGI (SNB-19 CNS)?
**A.** Its TGI is 3740 nM.

**Q.** And the GI50 (HCC-2998 colon)?
**A.** The GI50 was 986 nM.

**Q.** And the TGI (HCC-2998 colon)?
**A.** The TGI was 1970 nM.

**Q.** And the GI50 (SF-295 CNS)?
**A.** Its GI50 is 993 nM.

**Q.** And the TGI (SF-295 CNS)?
**A.** Its TGI is 2010 nM.

**Q.** What about the GI50 (HCT-116 colon) of the same compound?
**A.** Its GI50 is 876 nM.

**Q.** What about the TGI (HCT-116 colon) of the same compound?
**A.** Its TGI is 1650 nM.

**Q.** What about the GI50 (A498 renal) of the same compound?
**A.** The GI50 was 5410 nM.

**Q.** What about the TGI (A498 renal) of the same compound?
**A.** Its TGI is 12200 nM.

**Q.** What about the GI50 (MALME-3M melanoma) of the same compound?
**A.** The GI50 was 788 nM.

**Q.** And the TGI (MALME-3M melanoma)?
**A.** Its TGI is 1520 nM.

**Q.** And the GI50 (NCI-H23 lung)?
**A.** The GI50 was 1840 nM.

**Q.** And the TGI (NCI-H23 lung)?
**A.** Its TGI is 7120 nM.

**Q.** And the GI50 (NCI/ADR-RES ovarian)?
**A.** The GI50 was 2370 nM.

**Q.** What about the TGI (NCI/ADR-RES ovarian) of the same compound?
**A.** The TGI was 9890 nM.

**Q.** And the GI50 (IGROV1 ovarian)?
**A.** Its GI50 is 1190 nM.

**Q.** And the TGI (IGROV1 ovarian)?
**A.** Its TGI is 3510 nM.

**Q.** What about the GI50 (HOP-92 NSCLC) of the same compound?
**A.** The GI50 was 857 nM.

**Q.** What about the TGI (HOP-92 NSCLC) of the same compound?
**A.** Its TGI is 1960 nM.

**Q.** What about the GI50 (SK-MEL-5 melanoma) of the same compound?
**A.** Its GI50 is 892 nM.

**Q.** And the TGI (SK-MEL-5 melanoma)?
**A.** Its TGI is 1610 nM.

**Q.** What about the GI50 (PC-3 prostate) of the same compound?
**A.** Its GI50 is 1800 nM.

**Q.** What about the TGI (PC-3 prostate) of the same compound?
**A.** The TGI was 7420 nM.

**Q.** And the GI50 (NCI-H522 lung)?
**A.** Its GI50 is 889 nM.

**Q.** What about the TGI (NCI-H522 lung) of the same compound?
**A.** The TGI was 1700 nM.

**Q.** And the GI50 (UACC-62 melanoma)?
**A.** The GI50 was 969 nM.

**Q.** And the TGI (UACC-62 melanoma)?
**A.** The TGI was 1980 nM.

**Q.** What about the GI50 (RXF 393 renal) of the same compound?
**A.** The GI50 was 717 nM.

**Q.** And the TGI (RXF 393 renal)?
**A.** Its TGI is 1500 nM.

**Q.** And the GI50 (KM12 colon)?
**A.** Its GI50 is 1210 nM.

**Q.** What about the TGI (KM12 colon) of the same compound?
**A.** Its TGI is 2920 nM.
